Read-outs that look alike come from different tables or passages of the source.

As a reminder, the Emax is the maximal effect, on the per cent scale that the assay sets.

Holding throughout (format): cell-based
Assay [1] concerns the target CaV3.2 (Homo sapiens, UniProt O95180). The assay can be described thus: T-type calcium channel window current FLIPR assay, CaV3.2. As to the method: (§1) The human embryonic kidney 293 (HEK 293) cell lines (from Emmanuel Bourinet, Montpellier, France) stably expressing CaV3.2 or CaV3.3 were cultured under 5% carbon dioxide at 37 °C in Dulbecco’s Modified Eagle Medium (DMEM) Glutamax (Gibco, Life Technologies, Carlsbad, CA, USA) supplemented with 10% (v/v) fetal bovine serum (FBS), 100 U/mL penicillin, 100 μg/mL streptomycin (Gibco, Life Technologies), and 750 μg/mL geneticin (G418) (Gibco, Life Technologies). The Chinese Hamster Ovary (CHO) cell lines (Emmanuel Bourinet, Montpellier, France) expressing CaV3.1 were cultured under 5% carbon dioxide at 37 °C in Alpha Minimum Essential Media (MEM) Glutamax (Gibco, Life Technologies), supplemented with 10% (v/v) fetal bovine serum (FBS) and 300 μg/mL geneticin (G418) (Gibco, Life Technologies). The human neuroblastoma SH-SY5 Y cells (Victor Diaz, Goettingen, Germany) were cultured under 5% carbon dioxide at 37 °C in RPMI 1640 antibiotic-free medium (Invitrogen, Carlsbad, CA, USA), supplemented with 15% FBS and 2 mM GlutaMAX™ (Invitrogen). D-PBS (Gibco, Life Technologies) was used to wash the cells, and 0.25% Trypsin-EDTA (Gibco, Life Technologies) was used to detach cells from the flask surface. They were split in a ratio of 1:5 (ideally 1000 cells/cm^2) when they reached 70%–80% confluence (every 2–3 days). Transiently transfected CaV3.1HEK293 T cells were used in FLIPR Assays. HEK 293 T cells were cultured under 5% carbon dioxide at 37 °C in DMEM supplemented with 10% (v/v) FBS. D-PBS was used to wash the cells, and 0.25% Trypsin-EDTA was used to detach cells from the flask surface. The cells were split and seeded at 6 million cells per T175 flask, to reach 70%–80% confluence after 24 h. The next day, 12 μg DNA of human CaV3.1 was incubated in 900 μL serum-free DMEM with 36 μL FuGENE HD transfection reagent (Promega Corporation, Madison, WI, US) (1:3 DNA/Fugene ratio) for 20 min, and then the mixture was added into the cell flask slowly, drop by drop. After the transfection, the cells were cultured under 5% carbon dioxide at 37 °C for 24 h and then moved to a 28 °C incubator.
(§2) HEK 293 cells stably expressing CaV3.2 or CaV3.3 were seeded into 384-well black wall clear bottom plates (Corning, Lowell, MA, USA) at a density of 30,000 cells per well. Transiently transfected CaV3.1HEK293 T cells were seeded into 384-well black wall clear bottom plates at a density of 60,000 cells per well. Once the cells reached 90%–95% confluence after 24 h, the media were removed from the wells and replaced with 20 μL of 10% calcium 4 dye (Molecular Devices, Sunnyvale, CA, USA) in HBSS-HEPES (containing 5 mM KCl, 10 mM HEPES, 140 mM NaCl, 10 mM glucose, and 0.5 mM CaCl2, pH 7.4) with 0.1% bovine serum albumin (BSA). The cells were incubated for 30 min at 37 °C in the presence of 5% carbon dioxide. Each well on the reagent plates for the first addition contained 15 μL different concentrations of compounds dissolved in HBSS-HEPES containing 0.1% BSA and <0.1% DMSO and was incubated for 20 min after loading. Positive and negative controls contained 15 μL of HBSS-HEPES (0.1% BSA) alone. The plates were placed in the FLIPR^TETRA (Molecular Devices, Sunnyvale, CA, USA) programmed to measure maximum fluorescence intensity following a second addition of the agonist 5 mM CaCl2. The data acquisition parameters were adjusted as follows: Baseline fluorescence of 1500–2000 arbitrary fluorescence units (AFU), emission wavelength of 515–575 nm, and excitation wavelength of 470–495 nm. HBSS-HEPES (0.1% BSA) was used in the second addition as a negative control. One fluorescence reading was taken before the second addition. Then the fluorescence readings were recorded every two seconds for 300 s. Raw fluorescence readings in the form of relative light units were converted to response over baseline using ScreenWorks® (Molecular Devices, version 3.2.0.14) software.
(§3) Data were plotted and analyzed using GraphPad Prism v7.0 (GraphPad Software Inc., San Diego, CA, USA).

Assay [2] has as its target T1, N-type CaV2.2 (Homo sapiens, UniProt Q00975).
T1 construct: endogenous in cells
Put plainly: HVA calcium channel FLIPR assay, N-type (SH-SY5Y cells). The settings on record: SH-SY5Y, 10 µM nifedipine present, N = 3, mean ± SEM, read-out: IC50 CaV2.2 (HVA CaVs). The protocol:
as §1
SH-SY5Y cells were seeded into 384-well black wall clear bottom plates at a density of 15,000 cells per well, resulting in 90%–95% confluence after 24 h. The media were then removed from the wells and replaced with 20 μL of 10% calcium 4 dye (Molecular Devices) in physiological salt solution (PSS) (containing 5.9 mM KCl, 1.4 mM MgCl2, 10 mM HEPES, 1.2 mM NaH2 PO4, 5 mM NaHCO3, 140 mM NaCl, 11.5 mM glucose, and 1.8 mM CaCl2, pH 7.4) with 0.1% BSA. […] Positive control on the first reagent plate contained 15 μL of PSS (0.1% BSA), whereas PSS (0.1% BSA) containing 1 µM CVID and 10 µM nifedipine (final concentration) was used as a negative control. The fluorescence readings were recorded and converted as described previously, and agonist containing 90 mM KCl + 5 mM CaCl2 was used in the second addition.
Data were plotted and analyzed using GraphPad Prism v7.0 (GraphPad Software Inc., San Diego, CA, USA). A four-parameter logistic Hill equation with variable Hill coefficients was fitted to the data for concentration-response curves. Data are means ± SEM of n independent experiments. Statistical analysis was performed with a paired Student’s t-test with statistical significance at p < 0.05.

The target of assay [3] is CaV3.3 (Homo sapiens, UniProt Q9P0X4). Put plainly: T-type calcium channel window current FLIPR assay, CaV3.3. The protocol: as §1, §2, §3
CaV3.3, sequence (Q9P0X4 whole entry): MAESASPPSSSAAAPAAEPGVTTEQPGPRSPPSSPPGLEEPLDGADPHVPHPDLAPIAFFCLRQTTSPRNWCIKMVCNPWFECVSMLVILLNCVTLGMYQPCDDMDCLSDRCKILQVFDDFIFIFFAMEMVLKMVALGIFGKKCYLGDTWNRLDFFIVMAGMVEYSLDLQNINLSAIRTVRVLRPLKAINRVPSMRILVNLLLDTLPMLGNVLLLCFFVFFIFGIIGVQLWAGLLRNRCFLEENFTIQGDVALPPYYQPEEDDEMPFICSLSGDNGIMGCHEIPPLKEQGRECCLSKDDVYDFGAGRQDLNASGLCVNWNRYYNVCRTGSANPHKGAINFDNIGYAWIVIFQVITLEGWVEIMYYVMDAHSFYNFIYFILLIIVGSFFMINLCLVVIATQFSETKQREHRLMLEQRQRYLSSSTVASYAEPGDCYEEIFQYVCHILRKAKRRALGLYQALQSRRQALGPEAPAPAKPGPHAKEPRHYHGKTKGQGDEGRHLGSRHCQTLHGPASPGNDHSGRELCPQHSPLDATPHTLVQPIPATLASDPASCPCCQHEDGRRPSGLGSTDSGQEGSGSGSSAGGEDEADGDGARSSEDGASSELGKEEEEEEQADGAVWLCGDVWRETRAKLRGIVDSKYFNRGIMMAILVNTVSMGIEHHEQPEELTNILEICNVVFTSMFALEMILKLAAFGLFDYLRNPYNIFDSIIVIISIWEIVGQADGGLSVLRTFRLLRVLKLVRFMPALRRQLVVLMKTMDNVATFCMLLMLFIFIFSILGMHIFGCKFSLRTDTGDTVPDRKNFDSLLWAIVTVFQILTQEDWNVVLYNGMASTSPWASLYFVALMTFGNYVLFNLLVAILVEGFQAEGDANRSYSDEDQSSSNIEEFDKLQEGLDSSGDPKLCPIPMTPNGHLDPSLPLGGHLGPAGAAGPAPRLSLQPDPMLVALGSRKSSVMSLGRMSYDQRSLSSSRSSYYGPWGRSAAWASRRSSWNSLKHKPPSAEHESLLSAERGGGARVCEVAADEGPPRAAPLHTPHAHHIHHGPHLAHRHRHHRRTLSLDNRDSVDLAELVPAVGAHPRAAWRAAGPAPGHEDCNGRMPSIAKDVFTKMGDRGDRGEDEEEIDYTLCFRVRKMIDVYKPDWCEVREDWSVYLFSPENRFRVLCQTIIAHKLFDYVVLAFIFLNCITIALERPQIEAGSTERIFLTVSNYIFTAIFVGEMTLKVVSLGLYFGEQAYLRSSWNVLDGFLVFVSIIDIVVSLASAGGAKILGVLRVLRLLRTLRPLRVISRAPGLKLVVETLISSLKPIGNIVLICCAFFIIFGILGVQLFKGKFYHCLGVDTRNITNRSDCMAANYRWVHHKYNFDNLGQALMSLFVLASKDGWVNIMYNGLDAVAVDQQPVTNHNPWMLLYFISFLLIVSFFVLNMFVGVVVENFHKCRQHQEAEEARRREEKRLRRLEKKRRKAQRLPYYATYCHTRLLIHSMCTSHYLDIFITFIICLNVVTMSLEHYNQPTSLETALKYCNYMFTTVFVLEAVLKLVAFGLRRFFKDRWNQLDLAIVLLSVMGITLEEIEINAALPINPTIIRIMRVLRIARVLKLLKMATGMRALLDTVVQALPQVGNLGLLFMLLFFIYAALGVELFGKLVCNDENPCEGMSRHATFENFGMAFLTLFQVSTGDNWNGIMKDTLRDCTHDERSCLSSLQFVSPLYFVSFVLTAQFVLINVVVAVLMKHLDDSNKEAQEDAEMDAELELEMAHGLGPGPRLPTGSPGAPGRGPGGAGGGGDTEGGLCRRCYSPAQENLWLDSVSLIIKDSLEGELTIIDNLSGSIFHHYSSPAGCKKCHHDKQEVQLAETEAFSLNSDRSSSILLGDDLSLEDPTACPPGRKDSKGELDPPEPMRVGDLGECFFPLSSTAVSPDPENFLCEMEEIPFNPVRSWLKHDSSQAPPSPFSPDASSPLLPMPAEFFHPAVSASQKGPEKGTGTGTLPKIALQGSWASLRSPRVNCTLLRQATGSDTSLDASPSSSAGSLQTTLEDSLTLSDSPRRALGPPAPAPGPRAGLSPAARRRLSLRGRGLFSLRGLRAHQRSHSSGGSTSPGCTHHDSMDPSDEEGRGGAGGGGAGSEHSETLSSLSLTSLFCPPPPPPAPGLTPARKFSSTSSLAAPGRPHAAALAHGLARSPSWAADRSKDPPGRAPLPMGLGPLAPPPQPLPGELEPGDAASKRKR

CaV3.2, sequence (O95180 whole entry): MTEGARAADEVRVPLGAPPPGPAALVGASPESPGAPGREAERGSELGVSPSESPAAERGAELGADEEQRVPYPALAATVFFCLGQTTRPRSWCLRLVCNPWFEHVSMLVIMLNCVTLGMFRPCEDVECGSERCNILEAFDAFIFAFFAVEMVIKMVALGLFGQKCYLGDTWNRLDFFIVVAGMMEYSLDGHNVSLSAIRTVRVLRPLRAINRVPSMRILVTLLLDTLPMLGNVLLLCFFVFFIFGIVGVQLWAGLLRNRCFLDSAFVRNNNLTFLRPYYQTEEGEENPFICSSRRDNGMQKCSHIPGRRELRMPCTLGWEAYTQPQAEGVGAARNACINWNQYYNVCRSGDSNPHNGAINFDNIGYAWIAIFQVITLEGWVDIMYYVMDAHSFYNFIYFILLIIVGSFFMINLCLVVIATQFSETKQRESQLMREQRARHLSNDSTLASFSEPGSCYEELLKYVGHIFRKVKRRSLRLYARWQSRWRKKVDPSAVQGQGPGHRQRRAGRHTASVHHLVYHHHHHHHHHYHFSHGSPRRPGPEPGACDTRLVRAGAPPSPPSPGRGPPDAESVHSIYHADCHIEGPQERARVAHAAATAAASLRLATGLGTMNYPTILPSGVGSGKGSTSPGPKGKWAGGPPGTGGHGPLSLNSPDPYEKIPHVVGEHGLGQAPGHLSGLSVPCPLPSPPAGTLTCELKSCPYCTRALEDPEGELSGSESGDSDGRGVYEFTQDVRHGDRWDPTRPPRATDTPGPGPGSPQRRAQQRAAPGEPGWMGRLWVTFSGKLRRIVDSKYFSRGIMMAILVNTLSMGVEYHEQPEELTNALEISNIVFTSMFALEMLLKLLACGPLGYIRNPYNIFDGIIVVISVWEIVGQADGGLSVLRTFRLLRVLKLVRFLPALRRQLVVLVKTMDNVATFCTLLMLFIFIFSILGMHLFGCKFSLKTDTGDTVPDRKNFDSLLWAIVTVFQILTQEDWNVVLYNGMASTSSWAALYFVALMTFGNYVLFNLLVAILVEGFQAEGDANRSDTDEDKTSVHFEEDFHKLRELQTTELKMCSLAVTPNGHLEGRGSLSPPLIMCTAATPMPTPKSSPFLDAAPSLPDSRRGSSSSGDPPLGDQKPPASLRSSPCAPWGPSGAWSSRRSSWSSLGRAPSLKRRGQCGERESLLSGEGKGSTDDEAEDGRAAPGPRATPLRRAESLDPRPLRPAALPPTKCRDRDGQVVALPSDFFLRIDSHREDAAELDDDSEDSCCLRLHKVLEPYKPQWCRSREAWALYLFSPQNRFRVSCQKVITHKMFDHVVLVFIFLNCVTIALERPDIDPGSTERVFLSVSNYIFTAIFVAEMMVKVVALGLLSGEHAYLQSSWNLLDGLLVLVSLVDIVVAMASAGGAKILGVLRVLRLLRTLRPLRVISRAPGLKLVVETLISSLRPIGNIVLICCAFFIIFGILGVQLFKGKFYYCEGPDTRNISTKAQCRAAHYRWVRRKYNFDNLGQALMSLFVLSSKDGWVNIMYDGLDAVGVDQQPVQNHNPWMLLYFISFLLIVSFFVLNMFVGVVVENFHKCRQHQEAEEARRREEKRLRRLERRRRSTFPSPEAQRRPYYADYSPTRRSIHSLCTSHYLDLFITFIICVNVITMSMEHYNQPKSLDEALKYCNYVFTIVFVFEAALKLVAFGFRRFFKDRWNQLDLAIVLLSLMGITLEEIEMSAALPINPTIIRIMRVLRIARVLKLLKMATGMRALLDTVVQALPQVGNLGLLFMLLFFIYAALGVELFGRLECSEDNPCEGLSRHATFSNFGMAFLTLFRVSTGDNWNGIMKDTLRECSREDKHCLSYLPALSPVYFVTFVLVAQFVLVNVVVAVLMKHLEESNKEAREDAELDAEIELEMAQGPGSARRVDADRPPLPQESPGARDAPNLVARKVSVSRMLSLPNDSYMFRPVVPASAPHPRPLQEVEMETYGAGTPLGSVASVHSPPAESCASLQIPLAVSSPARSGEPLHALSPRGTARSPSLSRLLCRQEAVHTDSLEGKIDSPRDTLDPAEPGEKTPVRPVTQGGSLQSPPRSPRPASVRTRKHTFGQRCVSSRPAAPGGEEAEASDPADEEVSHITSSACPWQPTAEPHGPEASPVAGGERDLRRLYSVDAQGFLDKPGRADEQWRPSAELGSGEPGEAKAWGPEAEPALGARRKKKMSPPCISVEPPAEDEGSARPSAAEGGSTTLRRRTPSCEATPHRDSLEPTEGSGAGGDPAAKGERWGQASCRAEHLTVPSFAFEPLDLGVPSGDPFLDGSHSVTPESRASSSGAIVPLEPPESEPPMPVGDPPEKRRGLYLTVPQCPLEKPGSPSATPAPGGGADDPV

For `COC(=O)[C@H](Cc1c[nH]c2ccccc12)NC(=O)C(C)(c1c[nH]c2ccccc12)c1c[nH]c2ccccc12` [Compound 3, Methyl (2,2-di(1H-indol-3-yl)propanoyl)-L-tryptophanate], the “Kind of block of the CaV3.2 window current, in words” value in assay [1] (FLIPR) is listed as “potent partial blocking”. Moreover, the IC50 turned out to be 6.59 ± 0.66 µM in assay [1] (FLIPR window current assay, HEK 293 stable, N = 3, mean ± SEM, read-out: IC50 CaV3.2 (LVA CaVs)); 5.77 µM in assay [1] (FLIPR, representative curve, n = 4, read-out: IC50 of the representative concentration-response curve, CaV3.2 window current); 31.3 ± 3.4 µM in assay [2]; 3.81 ± 1.08 µM in assay [3] (FLIPR window current assay, HEK 293 stable, N = 3, mean ± SEM, read-out: IC50 CaV3.3 (LVA CaVs)); 3.05 µM in assay [3] (FLIPR, representative curve, n = 4, read-out: IC50 of the representative concentration-response curve, CaV3.3 window current). Further, the Emax in assay [1] (FLIPR, n = 3, read-out: Emax, inhibition for CaV3.2) came to 56.9%. The “Potency at CaV3.3 window current relative to potency at HVA CaVs” value in assay [3] (FLIPR, CaV3.3 better than HVA CaVs) is on record as over 8 fold.

Values taken from article PMC6315694, “Synthesis of Pseudellone Analogs and Characterization as Novel T-type Calcium Channel Blockers” (Marine Drugs, 2018).
